These results are taken from ChEMBL document CHEMBL1149030, “Discobahamins A and B, new peptides from the Bahamian deep water marine sponge Discodermia sp” (1994).

Values after ≈ are worked out from the molar mass of the structure shown.

Assay [1] relates to Candida albicans. Put plainly: Antifungal activity against yeast form of Candida albicans. In kind it is functional.
Assay [2] relates to Candida albicans. Put plainly: Antifungal activity against mycelial form of Candida albicans. It counts as functional.

One may read the MIC as the least concentration at which growth counts as inhibited. The low end stands for greater potency, the high end for weaker potency.

As for `CCC[C@@H](NC(=O)C(O)C(C)CC)C(=O)N[C@H]1CCCNC(=O)[C@H](Cc2c[nH]c3ccc(O)cc23)NC(=O)/C=C/c2coc(n2)[C@H](C)NC(=O)C(=O)[C@H](CC(C)C)NC(=O)[C@@H]2CCCN2C1=O` (some centres undefined) [DISCOBAHAMIN A], the MIC turned out to be 25 µg/mL (≈ 26.8 µM) with Candida albicans [1] and 50 µg/mL (≈ 53.6 µM) with Candida albicans [2].

In the case of `CCC(C)C(O)C(=O)N[C@H](CC(C)C)C(=O)N[C@H]1CCCNC(=O)[C@H](Cc2c[nH]c3ccc(O)cc23)NC(=O)/C=C/c2coc(n2)[C@H](C)NC(=O)C(=O)[C@H](CC(C)C)NC(=O)[C@@H]2CCCN2C1=O` (some centres undefined) [DISCOBAHAMIN B], the MIC against Candida albicans [1] stood at 25 µg/mL (≈ 26.4 µM); in the assay on Candida albicans [2] it was 50 µg/mL (≈ 52.8 µM).
